Structures are written as SMILES. In brackets after ≈: the same amount, converted by molar mass. Read-outs that look alike come from different tables or passages of the source. Where only a bound is given, the exact number is not on record here.

One data set can be described thus: physchem. The conditions noted are these: 25 °C, pH 6.5, aqueous buffer, thermodynamic from solid.
Data set [1] has as its system Chinese hamster ovary cells. The data set can be described thus: Cytotoxicity, MTT assay, CHO. The data set is classed as cell-based. The settings on record: Cricetulus griseus, read-out: CHO IC50. In general terms: Tetrazolium dyes change colour on reduction, which living cells bring about.
Data set [2] deals with P. falciparum NF54 (PfNF54) parasites. The experiment in a line: In vitro antiplasmodial asexual blood stage activity, pLDH assay, NF54. Format: cell-based, Plasmodium falciparum.
Data set [3] concerns P. falciparum K1 (PfK1) strain. The data set can be described thus: In vitro antiplasmodial asexual blood stage activity, pLDH assay, K1. Format: cell-based. The conditions noted are these: Plasmodium falciparum.
The mark [4] stands for this setting: Plasmodium falciparum, NF54, 72 h, pLDH assay, 72 h, read-out: Pf ABS IC50 NF54.
Setting [5] is: Plasmodium falciparum, NF54, mean, supplement, read-out: PfNF54 IC50.
Where [6] appears, read: K1, 72 h, read-out: Pf ABS IC50 K1.
Where [7] appears, read: Plasmodium falciparum, NF54, 72 h, read-out: Pf ABS IC50 NF54.
The mark [8] stands for this setting: Plasmodium falciparum, NF54, read-out: PfNF54 IC50.

In the case of `CS(=O)(=O)c1cccc(-c2ccc3nccc(-c4cccc(S(C)(=O)=O)c4)c3n2)c1` [Compound 18, 2,8-Bis(3-methylsulfonylphenyl)-1,5-naphthyridine], the solubility (thermodynamic) (as a rule, solubility found after equilibrating the solid with the medium) at 20 h in the data set “physchem” was less than 5 µM. Besides, the IC50 (usually the concentration that gives 50% inhibition) stood at 37 µM in data set [1] (one biological replicate); 0.016 µM in data set [2] (setting [4]); 0.0172 µM in data set [2] (setting [5]); 0.017 µM in data set [2] (pLDH assay, 72 h, read-out: Pf ABS IC50 NF54).

`CC(C)(O)c1ccc(-c2ccnc3ccc(-c4cccc(CS(C)(=O)=O)c4)nc23)cn1` [Compound 29, 2-[5-[6-[3-(Methylsulfonylmethyl)phenyl]-1,5-naphthyridin-4-yl]pyridin-2-yl]propan-2-ol]: the IC50 in data set [3] (setting [6]) is 1.6 µM; in data set [3] (K1, read-out: PfK1 IC50) it was 1.63 µM; in data set [1] it was more than 50 µM; in data set [2] (setting [7]), 0.046 µM; in data set [2] (setting [8]), 0.0464 µM.

Regarding `CC(C)(O)c1ccc(-c2ccnc3ccc(-c4cccc(C(C)(C)O)c4F)nc23)cn1` [Compound 31, 2-[2-Fluoro-3-[8-[6-(2-hydroxypropan-2-yl)pyridin-3-yl]-1,5-naphthyridin-2-yl]phenyl]propan-2-ol], in “physchem” (aqueous solution), the thermodynamic solubility at 20 h was found to be 10 µM (≈ 4.17 µg/mL). The IC50 worked out at 0.472 µM in data set [3] (K1, mean, supplement, read-out: PfK1 IC50); 0.47 µM in data set [3] (K1, pLDH assay, 72 h, read-out: Pf ABS IC50 K1); 2.3 µM in data set [2] (setting [4]); 2.35 µM in data set [2] (setting [5]).

The compound `CC(C)(O)c1ccc(-c2ccnc3ccc(-c4ccc(C(F)(F)F)nc4)nc23)cn1` [Compound 32, 2-[5-[6-[6-(Trifluoromethyl)pyridin-3-yl]-1,5-naphthyridin-4-yl]pyridin-2-yl]propan-2-ol] came in with a thermodynamic solubility at 20 h in the data set “physchem” (aqueous solution) of less than 5 µM. The IC50 in data set [2] (setting [4]) came out at 0.21 µM; in data set [2] (setting [5]), 0.207 µM.

For `CC(C)(O)c1ccc(-c2ccnc3ccc(-c4cccc(CC(N)=O)c4)nc23)cn1` [Compound 26, 2-[3-[8-[6-(2-Hydroxypropan-2-yl)pyridin-3-yl]-1,5-naphthyridin-2-yl]phenyl]acetamide], the IC50 in data set [3] (setting [6]) is 0.15 µM; in data set [3] (K1, read-out: PfK1 IC50), 0.151 µM; in data set [1], 30 µM; in data set [2] (setting [7]), 0.037 µM; in data set [2] (setting [8]), 0.0376 µM.

Regarding `O=c1cc(-c2ccc3nccc(-c4ccnc(C(F)(F)F)c4)c3n2)ccn1CCO` [Compound 14, 1-(2-Hydroxyethyl)-4-[8-[2-(trifluoromethyl)pyridin-4-yl]-1,5-naphthyridin-2-yl]pyridin-2-one], the IC50 in data set [3] (setting [6]) stood at 0.34 µM; in data set [3] (K1, read-out: PfK1 IC50), 0.344 µM; in data set [2] (setting [8]), 0.131 µM.

In turn, `CS(=O)(=O)c1cccc(-c2ccc3nccc(-c4ccc(C(=O)N5CC[C@H](N)C5)cc4)c3n2)c1` [Compound 38, [(3S)-3-Aminopyrrolidin-1-yl]-[4-[6-(3-methylsulfonylphenyl)-1,5-naphthyridin-4-yl]phenyl]methanone] returned a thermodynamic solubility at 20 h in “physchem” (aqueous solution) of 180 µM (≈ 85.1 µg/mL). Besides, the IC50 in data set [1] (one biological replicate) was 28 µM; in data set [2] (setting [4]), 0.048 µM; in data set [2] (setting [5]), 0.0486 µM.

In the case of `CS(=O)(=O)c1cccc(-c2ccc3nccc(-c4ccn(CCO)c(=O)c4)c3n2)c1` [Compound 35, 1-(2-Hydroxyethyl)-4-[6-(3-methylsulfonylphenyl)-1,5-naphthyridin-4-yl]pyridin-2-one], the solubility (thermodynamic) at 20 h in “physchem” (aqueous solution) stood at 195 µM (≈ 82.2 µg/mL). In addition, the IC50 in data set [1] was more than 50 µM; in data set [2] (setting [7]), 0.2 µM; in data set [2] (setting [8]) it was 0.2 µM.

As for `CC[C@H]1CN2CCc3cc(OC)c(OC)cc3[C@@H]2C[C@@H]1C[C@H]1NCCc2cc(OC)c(OC)cc21` [Emetine, reference compound], the IC50 in data set [1] was less than 0.003 µM.

On to `O[C@H]1CN(c2cc(-c3ccc4nccc(-c5ccnc(C(F)(F)F)c5)c4n3)ccn2)C[C@@H]1O` [Compound 16, (3S,4S)-1-[4-[8-[2-(Trifluoromethyl)pyridin-4-yl]-1,5-naphthyridin-2-yl]pyridin-2-yl]pyrrolidine-3,4-diol], for which the IC50 in data set [3] (setting [6]) came to 0.35 µM; in data set [3] (K1, read-out: PfK1 IC50), 0.355 µM; in data set [1], 28 µM; in data set [2] (setting [7]), 0.051 µM; in data set [2] (setting [8]), 0.0508 µM.

Consider `CC(C)(O)C(=O)N1CC=C(c2ccc3nccc(-c4ccnc(C(F)(F)F)c4)c3n2)CC1` [Compound 17, 2-Hydroxy-2-methyl-1-[4-[8-[2-(trifluoromethyl)pyridin-4-yl]-1,5-naphthyridin-2-yl]-3,6-dihydro-2H-pyridin-1-yl]propan-1-one], for which the IC50 in data set [3] (setting [6]) was 0.46 µM; in data set [3] (K1, read-out: PfK1 IC50), 0.463 µM; in data set [1], more than 50 µM; in data set [2] (setting [7]), 0.14 µM; in data set [2] (setting [8]), 0.144 µM.

Regarding `Cn1cc(-c2ccc3nccc(-c4cccc(S(C)(=O)=O)c4)c3n2)ccc1=O` [Compound 20, 1-Methyl-5-[8-(3-methylsulfonylphenyl)-1,5-naphthyridin-2-yl]pyridin-2-one], the IC50 in data set [1] is 34 µM; in data set [2] (setting [7]), 0.41 µM; in data set [2] (setting [8]), 0.411 µM.

Take `Cn1ccc(-c2ccc3nccc(-c4ccnc(C(C)(C)O)c4)c3n2)cc1=O` [Compound 23, 4-[8-[2-(2-Hydroxypropan-2-yl)pyridin-4-yl]-1,5-naphthyridin-2-yl]-1-methylpyridin-2-one]: the IC50 in data set [3] (setting [6]) is 0.28 µM; in data set [3] (K1, read-out: PfK1 IC50), 0.277 µM; in data set [1] it was more than 50 µM; in data set [2] (setting [7]), 0.14 µM; in data set [2] (setting [8]) it was 0.144 µM.

In the case of `C[S+]([O-])c1cccc(-c2ccc3nccc(-c4ccnc(C(F)(F)F)c4)c3n2)c1` (stereo not shown) [Compound 11, 2-(3-Methylsulfinylphenyl)-8-[2-(trifluoromethyl)pyridin-4-yl]-1,5-naphthyridine], the IC50 in data set [1] turned out to be 14 µM; in data set [2] (setting [7]) it was 0.042 µM; in data set [2] (setting [8]), 0.0425 µM.

`CCN(CC)CCCC(C)Nc1ccnc2cc(Cl)ccc12` (stereo not shown) [Chloroquine, reference compound]: the IC50 in data set [2] (Plasmodium falciparum, NF54, 72 h, read-out: PfNF54 IC50) is 0.011 µM.

`NC(=O)Cc1cccc(-c2ccc3nccc(-c4ccnc(C(F)(F)F)c4)c3n2)c1` [Compound 15, 2-[3-[8-[2-(Trifluoromethyl)pyridin-4-yl]-1,5-naphthyridin-2-yl]phenyl]acetamide]: the IC50 is 1.6 µM in data set [3] (setting [6]); 1.62 µM in data set [3] (K1, read-out: PfK1 IC50); more than 50 µM in data set [1]; 0.31 µM in data set [2] (setting [7]); 0.31 µM in data set [2] (setting [8]).

Take `Cn1ccc(-c2ccc3nccc(-c4ccnc(C(F)(F)F)c4)c3n2)cc1=O` [Compound 13, 1-Methyl-4-[8-[2-(trifluoromethyl)pyridin-4-yl]-1,5-naphthyridin-2-yl]pyridin-2-one]: the IC50 worked out at 0.077 µM in data set [2] (setting [7]) and 0.0774 µM in data set [2] (setting [8]).

For `Cn1cc(-c2ccnc3ccc(-c4cccc(S(C)(=O)=O)c4)nc23)ccc1=O` [Compound 33, 1-Methyl-5-[6-(3-methylsulfonylphenyl)-1,5-naphthyridin-4-yl]pyridin-2-one], in the data set “physchem” (aqueous solution), the solubility (thermodynamic) at 20 h was found to be 55 µM (≈ 21.5 µg/mL). Also, the IC50 stood at 0.096 µM in data set [2] (setting [4]) and 0.0956 µM in data set [2] (setting [5]).

Take `Cn1ccc(-c2ccc3nccc(-c4ccc(C(C)(C)O)cc4)c3n2)cc1=O` [Compound 25, 4-[8-[4-(2-Hydroxypropan-2-yl)phenyl]-1,5-naphthyridin-2-yl]-1-methylpyridin-2-one]: the thermodynamic solubility at 20 h in “physchem” (aqueous solution) was 190 µM (≈ 70.6 µg/mL). Moreover, the results for the IC50 in data set [2] (setting [4]) and in data set [2] (setting [5]) were 2.1 µM and 2.16 µM, respectively.

(Values after paper PMC12557380, “Optimization of 2,8-Diaryl-1,5-naphthyridines as Plasmodium falciparum Phosphatidylinositol 4‑Kinase Inhibitors with Improved ADME Profiles and In Vivo Efficacy” (Journal of Medicinal Chemistry, 2025).)
